The values below come from patent publication US20250059172A1, “INDAZOLE COMPOUND AND PHARMACEUTICAL” (NIPPON SHINYAKU CO., LTD., priority 2021, published 2025).

One test relates to human A549 cells. Nature of the test: Inhibition test of PGE2 production using human A549 cells. In kind it is cell-based. As to conditions: IL-1β stimulated A549 cells, 24 h, PGE2 by HTRF, read-out: A549 cell inhibition of PGE2 production IC50. The essentials: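 PGE2 (HTRF) and PGF2a (EIA) were quantified in medium after 24 h, 37°C IL-1β stimulation (5 ng/well) of human A549 cells that had received test compound 60 min beforehand (0.1% DMSO, 3% FBS RPMI). IC50 relative to the window between IL-1β-stimulated and unstimulated controls.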
Background: TR-FRET usually uses a lanthanide donor and a delayed reading to cut background.

The target of another test is human mPGES-1 (Homo sapiens (Human), UniProt O14684). Nature of the test: mPGES-1 inhibitory activity test. As to conditions: microsomes of CHO-K1 cells expressing human mPGES-1, PGH2 1 μM, PGE2 by HTRF; read-out: mPGES-1 inhibition (IC50 nM). In kind it is biochemical. The essentials: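 PGE2 formation was quantified by HTRF and reported as percent inhibition at 10 and 100 nM compound or as IC50. The 60-second reaction at 4° C used 1 μM PGH2, after a 20-minute 4° C preincubation of compound (1% DMSO final) with glutathione-supplemented (2.5 mM, pH 7.4) microsomes. The microsomes were from transiently transfected CHO-K1 cells expressing human mPGES-1.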
human mPGES-1, sequence (O14684 whole entry): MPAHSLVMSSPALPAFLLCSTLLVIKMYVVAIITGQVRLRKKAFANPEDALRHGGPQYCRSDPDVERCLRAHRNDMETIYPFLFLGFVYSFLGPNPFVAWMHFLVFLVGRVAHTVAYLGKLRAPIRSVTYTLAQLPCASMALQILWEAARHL

The structures appear in SMILES notation. Structures can show the parent of a compound that is named as a salt.

What is called IC50 is the point on the concentration scale where inhibition reaches its midpoint. In the case of `CC(C)(C)C(=O)NCc1ccc(Cl)c(C(=O)Nc2cccc3c2cnn3-c2ccc(CO)nc2)c1` [Example 75, 2-Chloro-5-{[(2,2-dimethylpropanoyl)amino]methyl}-N-{1-[6-(hydroxymethyl)pyridin-3-yl]-1H-indazol-4-yl}benzamide], the values for the IC50 in the test on human A549 cells and at human mPGES-1 were 260 nM and 71.1 nM, respectively.
The corresponding values for `Cc1cc(-n2ncc3c(NC(=O)c4cc(CNC(=O)C(C)(C)C)ccc4Cl)cccc32)cc(C)n1` [Example 76, 2-Chloro-5-{[(2,2-dimethylpropanoyl)amino]methyl}-N-[1-(2,6-dimethylpyridin-4-yl)-1H-indazol-4-yl]benzamide hydrochloride] are 5.2 nM and 2.4 nM.
As to `CC(C)(C)C(=O)NCc1ccc(Cl)c(C(=O)Nc2cccc3c2cnn3-c2ccc(C(F)(F)F)nc2)c1` [Example 77, 2-Chloro-5-{[(2,2-dimethylpropanoyl)amino]methyl}-N-{1-[6-(trifluoromethyl)pyridin-3-yl]-1H-indazol-4-yl}benzamide], the IC50 in the test on human A549 cells worked out at 1 nM; at human mPGES-1, 1.1 nM.
Taken in the same sequence, the figures for `COCc1cncc(-n2ncc3c(NC(=O)c4cc(CNC(=O)C(C)(C)C)ccc4Cl)cccc32)c1` [Example 78, 2-Chloro-5-{[(2,2-dimethylpropanoyl)amino]methyl}-N-{1-[5-(methoxymethyl)pyridin-3-yl]-1H-indazol-4-yl}benzamide hydrochloride] were 9.8 nM and 10.4 nM.
Turning to `Cc1cc(OC(F)(F)F)ccc1-n1ncc2c(NC(=O)c3cc(CNC(=O)C(C)(C)C)ccc3Cl)cccc21` [Example 79, 2-Chloro-5-{[(2,2-dimethylpropanoyl)amino]methyl}-N-{1-[2-methyl-4-(trifluoromethoxy)phenyl]-1H-indazol-4-yl}benzamide], the values for the IC50 in the test with human A549 cells and at human mPGES-1 were 3.4 nM and 1 nM, respectively.
The corresponding values for `CC(C)(C)C(=O)NCc1ccc(Cl)c(C(=O)Nc2cccc3c2cnn3-c2nccs2)c1` [Example 80, 2-Chloro-5-{[(2,2-dimethylpropanoyl)amino]methyl}-N-[1-(1,3-thiazol-2-yl)-1H-indazol-4-yl]benzamide] are 5.2 nM and 1.1 nM.
On to `CC(C)(C)C(=O)NCc1ccc(Cl)c(C(=O)Nc2cccc3c2cnn3-c2cccc(OC(F)F)c2)c1` [Example 81, 2-Chloro-N-{1-[3-(difluoromethoxy)phenyl]-1H-indazol-4-yl}-5-{[(2,2-dimethylpropanoyl)amino]methyl}benzamide], for which the IC50 in the test on human A549 cells was found to be 0.3 nM; at human mPGES-1, 14.9 nM.
On to `Cc1cc(-n2ncc3c(NC(=O)c4cc(CNC(=O)C(C)(C)C)ccc4Cl)cccc32)ccc1OC(F)(F)F` [Example 82, 2-Chloro-5-{[(2,2-dimethylpropanoyl)amino]methyl}-N-{1-[3-methyl-4-(trifluoromethoxy)phenyl]-1H-indazol-4-yl}benzamide], for which the IC50 with human A549 cells was 0.3 nM; at human mPGES-1, 10 nM.
Taken in the same sequence, the figures for `CC(C)(C)C(=O)NCc1ccc(Cl)c(C(=O)Nc2cccc3c2cnn3-c2cscn2)c1` [Example 83, 2-Chloro-5-{[(2,2-dimethylpropanoyl)amino]methyl}-N-[1-(1,3-thiazol-4-yl)-1H-indazol-4-yl]benzamide] were 5.3 nM and 1.5 nM.
With `COC(C)(C)c1ccc(-n2ncc3c(NC(=O)c4cc(CNC(=O)C(C)(C)C)ccc4Cl)cccc32)cn1` [Example 84, 2-Chloro-5-{[(2,2-dimethylpropanoyl)amino]methyl}-N-{1-[6-(2-methoxypropan-2-yl)pyridin-3-yl]-1H-Indazol-4-yl}benzamide hydrochloride], the IC50 was 4.9 nM with human A549 cells and 0.8 nM at human mPGES-1.
Turning to `CC(C)(C)C(=O)NCc1ccc(Cl)c(C(=O)Nc2cccc3c2cnn3-c2ccc(C(C)(C)F)nc2)c1` [Example 85, 2-Chloro-5-{[(2,2-dimethylpropanoyl)amino]methyl}-N-{1-[6-(2-fluoropropan-2-yl)pyridin-3-yl]-1H-indazol-4-yl}benzamide], the IC50 is 6 nM with human A549 cells and 8.6 nM at human mPGES-1.
For `CCOCc1ccc(-n2ncc3c(NC(=O)c4cc(CNC(=O)C(C)(C)C)ccc4Cl)cccc32)cn1` [Example 86, 2-Chloro-5-{[(2,2-dimethylpropanoyl)amino]methyl}-N-{1-[6-(ethoxymethyl)pyridin-3-yl]-1H-indazol-4-yl}benzamide hydrochloride], the IC50 came to 101 nM in the test with human A549 cells and 15.7 nM on human mPGES-1.
In the case of `Cc1ccc(-n2ncc3c(NC(=O)c4cc(CNC(=O)C(F)(F)F)ccc4Cl)cccc32)cn1` [Example 87, 2-Chloro-N-[1-(6-methylpyridin-3-yl)-1H-indazol-4-yl]-5-{[(trifluoroacetyl)amino]methyl}benzamide hydrochloride], the IC50 in the test with human A549 cells worked out at 72 nM; on human mPGES-1, 4.7 nM.
For the compound `COc1cccc(Cn2ncc3c(NC(=O)c4cc(CNC(=O)C(C)(C)C)ccc4Cl)cccc32)c1` [Example 89, 2-Chloro-5-{[(2,2-dimethylpropanoyl)amino]methyl}-N-[1-(3-methoxybenzyl)-1H-indazol-4-yl]benzamide], the IC50 in the test with human A549 cells stood at 20.7 nM; on human mPGES-1, 3.5 nM.
Turning to `COc1ccccc1Cn1ncc2c(NC(=O)c3cc(CNC(=O)C(C)(C)C)ccc3Cl)cccc21` [Example 90, 2-Chloro-5-{[(2,2-dimethylpropanoyl)amino]methyl}-N-[1-(2-methoxybenzyl)-1H-indazol-4-yl]benzamide], the results for the IC50 in the test on human A549 cells and at human mPGES-1 were 17.7 nM and 2.2 nM, respectively.
Turning to `Cc1cc(C)c(Cn2ncc3c(NC(=O)c4cc(CNC(=O)C(C)(C)C)ccc4Cl)cccc32)c(C)c1` [Example 91, 2-Chloro-5-{[(2,2-dimethylpropanoyl)amino]methyl}-N-[1-(2,4,6-trimethylbenzyl)-1H-indazol-4-yl]benzamide], the IC50 is 5.1 nM with human A549 cells and below 1 nM at human mPGES-1.
Consider `CC(C)(C)C(=O)NCc1ccc(Cl)c(C(=O)Nc2cccc3c2cnn3Cc2ccc(C(F)(F)F)cc2)c1` [Example 92], for which the IC50 with human A549 cells came to 4.2 nM; on human mPGES-1, 5.4 nM.
Regarding `CC(C)(C)C(=O)NCc1ccc(Cl)c(C(=O)Nc2cccc3c2cnn3Cc2cccc(C(F)(F)F)c2)c1` [Example 94, 2-Chloro-5-{[(2,2-dimethylpropanoyl)amino]methyl}-N-{1-[3-(trifluoromethyl)benzyl]-1H-indazol-4-yl}benzamide], the IC50 in the test on human A549 cells stood at 9.2 nM; at human mPGES-1 it was 10 nM.
For `CC(C)(C)C(=O)NCc1ccc(Cl)c(C(=O)Nc2cccc3c2cnn3CCc2ccccc2)c1` [Example 95, 2-Chloro-5-{[(2,2-dimethylpropanoyl)amino]methyl}-N-[1-(2-phenylethyl)-1H-indazol-4-yl]benzamide], the IC50 in the test on human A549 cells was determined as 2.7 nM; on human mPGES-1 it was 1.2 nM.
Consider `CC(C)(C)C(=O)NCc1ccc(Cl)c(C(=O)Nc2cccc3c2cnn3C2CCCC2)c1` [Example 97, 2-Chloro-N-(1-cyclopentyl-1H-indazol-4-yl)-5-{[(2,2-dimethylpropanoyl)amino]methyl}benzamide], for which the IC50 turned out to be 5.3 nM in the test on human A549 cells and 0.7 nM at human mPGES-1.
On to `CC(C)(C)C(=O)NCc1ccc(Cl)c(C(=O)Nc2cccc3c2cnn3C2CCCCC2)c1` [Example 98, 2-Chloro-N-(1-cyclohexyl-1H-indazol-4-yl)-5-{[(2,2-dimethylpropanoyl)amino]methyl}benzamide], for which the IC50 stood at 1.6 nM with human A549 cells and 9 nM at human mPGES-1.
For the compound `CC(C)(C)C(=O)NCc1ccc(Cl)c(C(=O)Nc2cccc3c2cnn3CC2CCC2)c1` [Example 99, 2-Chloro-N-[1-(cyclobutylmethyl)-1H-indazol-4-yl]-5-{[(2,2-dimethylpropanoyl)amino]methyl}benzamide], the IC50 in the test with human A549 cells worked out at 4.1 nM; on human mPGES-1, 1.3 nM.
For the compound `CC(C)(C)C(=O)NCc1ccc(Cl)c(C(=O)Nc2cccc3c2cnn3CC2CCCCC2)c1` [Example 100, 2-Chloro-N-[1-(cyclohexylmethyl)-1H-indazol-4-yl]-5-{[(2,2-dimethylpropanoyl)amino]methyl}benzamide], the IC50 with human A549 cells was found to be 1.9 nM; at human mPGES-1, 1 nM.
As to `CC(C)(C)C(=O)NCc1ccc(Cl)c(C(=O)Nc2cccc3c2cnn3CCCc2ccccc2)c1` [Example 101, 2-Chloro-5-{[(2,2-dimethylpropanoyl)amino]methyl}-N-[1-(3-phenylpropyl)-1H-indazol-4-yl]benzamide], the values for the IC50 in the test with human A549 cells and at human mPGES-1 were 8.1 nM and 4.7 nM, respectively.
Consider `CC(C)n1ncc2c(NC(=O)c3cc(CNC(=O)C(C)(C)C)ccc3Cl)cccc21` [Example 102, 2-Chloro-5-{[(2,2-dimethylpropanoyl)amino]methyl}-N-[1-(propan-2-yl)-1H-indazol-4-yl]benzamide], for which the values for the IC50 in the test on human A549 cells and on human mPGES-1 were 20.7 nM and 3.1 nM, respectively.
Taken in the same sequence, the figures for `CC(C)(C)OC(=O)N1CCC(n2ncc3c(NC(=O)c4cc(CNC(=O)C(C)(C)C)ccc4Cl)cccc32)CC1` [Example 103, tert-Butyl 4-(4-{[(2-chloro-5-{[(2,2-dimethylpropanoyl)amino]methyl}phenyl)carbonyl]amino}-1H-indazol-1-yl)piperidine-1-carboxylate] were 4 nM and 2.7 nM.
Turning to `CC(C)(C)C(=O)NCc1ccc(Cl)c(C(=O)Nc2cccc3c2cnn3C2CCOCC2)c1` [Example 104, 2-Chloro-5-{[(2,2-dimethylpropanoyl)amino]methyl}-N-[1-(tetrahydro-2H-pyran-4-yl)-1H-indazol-4-yl]benzamide], the IC50 with human A549 cells is 80.6 nM; at human mPGES-1 it was 99.9 nM.
